Key:
[1] = parameters: method as in earlier work; conditions: cited from earlier work
[2] = target: T1, NET (Homo sapiens, UniProt P23975); test: [3H]-NE uptake inhibition, method A (silicon oil); assay type: cell-based; parameters: expressed in transfected cells; host or cells: HEK 293 cells (Invitrogen), stably transfected
[3] = tested on: healthy subjects; test: Physiologic measures (blood pressure, heart rate, body temperature), clinical study; assay type: in vivo, humans; conditions: peak change from baseline, mean±SEM, 16 subjects
Protocol: (§1) The washout periods between the sessions were at least 10 days long.
(§2) Identical placebo (lactose) capsules were prepared. […] Drugs were administered without food.
(§3) Physiologic measures were assessed repeatedly 4, 3, 2, and 1 h before and 0, 0.33, 0.66, 1, 1.5, 2, 2.5, 3, 4, 5, and 6 h after MDMA or placebo administration. Heart rate, systolic blood pressure, and diastolic blood pressure were measured using an OMRON M7 blood pressure monitor (OMRON Healthcare Europe, Hoofddorp, The Netherlands). Measures were taken twice per time point with an interval of 1 min, and the average was used for the analysis. Core (tympanic) temperature was assessed using a GENIUS 2 ear thermometer (Tyco Healthcare Group, Watertown, NY). […] Adverse effects were assessed using the List of Complaints (LC), which consists of 66 items that yield a total adverse effects score and reliably measure physical and general discomfort.
(§4) Clinical data values were transformed to differences from baseline. Peak effects (Emax) were determined for repeated measures. Emax values were compared using General Linear Models repeated-measures analysis of variance, with drug as within-subject factor, using Statistica 6.0 software (StatSoft, Tulsa, OK). Tukey post hoc comparisons were performed based on significant main effects of treatment. Additional analyses of variance were performed, with period as factor to exclude period effects. Correlation analyses were performed using Pearson’s correlations. The criterion for significance was p<0.05. Mean arterial pressure (MAP) was calculated from diastolic blood pressure and systolic blood pressure using the following formula: MAP = DBP+(SBP - DBP)/3.

[4] = tested on: healthy subjects; test: Visual Analog Scales, subjective drug effects, clinical study; assay type: in vivo, humans
Protocol: as §1, §2
(§5) The psychometric measures included Visual Analog Scales (VAS), [10], the Adjective Mood Rating Scale (AMRS), and 5-Dimensions of Altered States of Consciousness (5D-ASC), [23]. […] The VASs were presented as 100 mm horizontal lines marked “not at all" on the left and “extremely" on the right. The VASs for “closeness to others," “open," and “talkative" were bidirectional (±50 mm). The VASs were administered 4 h before and 0, 0.33, 1, 1.5, 2, 2.5, 3, 3.5, 4, and 5 h after MDMA or placebo administration. […] The AMRS contains subscales for activity, extroversion and introversion, well-being, emotional excitation, anxiety-depression, and dreaminess. The 5D-ASC rating scale measures alterations in mood, perception, experience of self in relation to the environment, and thought disorder. The 5D-ASC rating scale comprises five subscales or dimensions and 11 lower-order scales. The 5D-ASC dimension “oceanic boundlessness" (OB, 27 items) measures derealization and depersonalization associated with positive emotional states, ranging from heightened mood to euphoric exaltation. […] The global ASC score was determined by adding the OB, AED, and VR scores. The 5D-ASC scale was administered 4 h after MDMA or placebo administration.
as §4

[5] = cited from earlier work
[6] = target: T1, NET; test: Radioligand binding, [3H]-nisoxetine, HEK 293 membranes; parameters: expressed in transfected cells; host or cells: HEK 293 cells (Invitrogen), stably transfected
[7] = target: SERT (Homo sapiens, UniProt P31645); conditions: % of plasma sample dilution, undiluted plasma = 100%; plasma 120 min after MDMA/placebo; mean±SEM
[8] = tested on: healthy subjects; test: Circulating plasma catecholamines, clinical study; assay type: in vivo, humans; conditions: peak change from baseline, mean±SEM, 16 subjects
Protocol: as §1, §2
Plasma concentrations of copeptin were also determined in this study as reported elsewhere. […] No hydrolysis was performed. Thus, the values for HMMA represent the drug concentrations of the non-conjugated metabolite. All blood samples were collected on ice and centrifuged within 10 min at 4°C. The plasma was then stored at –20°C until the analysis.

[9] = tested on: HEK 293 cells; test: Toxilight toxicity assay, cell integrity; assay type: cell-based, human
[10] = target: T2, DAT (Homo sapiens, UniProt Q01959); conditions: % of plasma sample dilution, undiluted plasma = 100%; plasma 120 min after MDMA/placebo
[11] = tested on: healthy subjects; test: Adjective Mood Rating Scale (AMRS), clinical study; assay type: in vivo, humans; conditions: peak change from baseline, mean±SEM, 16 subjects
Protocol: as §1, §2, §5, §4

[12] = tested on: healthy subjects; test: Adverse effects, List of Complaints, clinical study
Protocol: as §1, §2, §3

[13] = target: T1, NET; conditions: % of plasma sample dilution, undiluted plasma = 100%; plasma 120 min after MDMA/placebo; mean±SEM
[14] = tested on: healthy subjects; test: 5-Dimensions of Altered States of Consciousness (5D-ASC), clinical study; assay type: in vivo, humans; conditions: placebo-placebo vs placebo-MDMA
Protocol: as §1, §2, §5

[15] = target: T2, DAT; test: cell-based
[16] = peak change from baseline, mean±SEM, 16 subjects

T1 sequence (P23975 whole entry): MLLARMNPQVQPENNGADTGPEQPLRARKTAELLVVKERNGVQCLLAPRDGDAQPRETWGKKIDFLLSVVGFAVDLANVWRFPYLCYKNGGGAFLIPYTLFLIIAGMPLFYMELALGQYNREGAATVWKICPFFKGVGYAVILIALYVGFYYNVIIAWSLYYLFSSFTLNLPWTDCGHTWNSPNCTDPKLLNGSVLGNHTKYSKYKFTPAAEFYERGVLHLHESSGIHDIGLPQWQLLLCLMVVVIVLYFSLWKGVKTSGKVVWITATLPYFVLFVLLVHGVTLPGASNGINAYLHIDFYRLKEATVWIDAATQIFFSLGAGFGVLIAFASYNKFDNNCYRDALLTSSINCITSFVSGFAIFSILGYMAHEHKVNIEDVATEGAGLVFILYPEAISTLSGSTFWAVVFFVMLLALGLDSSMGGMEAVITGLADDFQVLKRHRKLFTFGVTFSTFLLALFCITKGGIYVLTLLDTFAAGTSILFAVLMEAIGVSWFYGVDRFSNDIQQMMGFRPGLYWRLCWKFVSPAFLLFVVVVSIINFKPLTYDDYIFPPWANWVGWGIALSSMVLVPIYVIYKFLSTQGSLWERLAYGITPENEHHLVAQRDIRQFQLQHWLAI
T2 sequence (Q01959 whole entry): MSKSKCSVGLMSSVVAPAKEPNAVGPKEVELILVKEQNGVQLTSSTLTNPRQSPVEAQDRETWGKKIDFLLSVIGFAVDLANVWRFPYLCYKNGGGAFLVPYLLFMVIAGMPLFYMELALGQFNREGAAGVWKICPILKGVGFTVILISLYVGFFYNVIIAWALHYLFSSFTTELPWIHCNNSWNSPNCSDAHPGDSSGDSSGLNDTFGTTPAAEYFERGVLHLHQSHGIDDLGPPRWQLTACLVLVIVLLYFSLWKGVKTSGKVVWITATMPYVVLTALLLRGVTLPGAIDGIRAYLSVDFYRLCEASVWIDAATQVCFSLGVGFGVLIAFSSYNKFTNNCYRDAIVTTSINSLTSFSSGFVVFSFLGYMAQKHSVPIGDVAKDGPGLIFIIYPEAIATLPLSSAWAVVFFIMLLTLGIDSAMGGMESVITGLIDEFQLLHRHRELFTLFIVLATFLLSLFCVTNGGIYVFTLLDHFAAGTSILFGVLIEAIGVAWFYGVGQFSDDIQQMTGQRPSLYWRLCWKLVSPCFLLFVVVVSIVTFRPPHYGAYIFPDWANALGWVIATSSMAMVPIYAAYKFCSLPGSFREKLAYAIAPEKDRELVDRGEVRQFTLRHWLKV
SERT, sequence (P31645 whole entry): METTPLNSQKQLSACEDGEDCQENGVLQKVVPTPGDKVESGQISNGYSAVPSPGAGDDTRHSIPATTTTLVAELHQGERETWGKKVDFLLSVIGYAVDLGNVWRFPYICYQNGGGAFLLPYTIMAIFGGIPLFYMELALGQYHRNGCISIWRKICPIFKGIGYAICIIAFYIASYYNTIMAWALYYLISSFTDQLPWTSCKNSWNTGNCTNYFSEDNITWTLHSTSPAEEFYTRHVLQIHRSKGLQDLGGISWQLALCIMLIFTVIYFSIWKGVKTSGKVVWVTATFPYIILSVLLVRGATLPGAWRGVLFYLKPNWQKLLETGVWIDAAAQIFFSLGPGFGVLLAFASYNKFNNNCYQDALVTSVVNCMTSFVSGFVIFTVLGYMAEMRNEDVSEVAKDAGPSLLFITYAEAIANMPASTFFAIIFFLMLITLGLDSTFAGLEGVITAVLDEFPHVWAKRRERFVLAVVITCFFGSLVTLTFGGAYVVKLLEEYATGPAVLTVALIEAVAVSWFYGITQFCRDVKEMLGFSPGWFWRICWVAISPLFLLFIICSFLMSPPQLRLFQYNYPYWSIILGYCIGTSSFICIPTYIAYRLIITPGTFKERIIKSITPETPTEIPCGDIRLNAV

Structure (SMILES): CNC(C)Cc1ccc2c(c1)OCO2 (stereo not drawn) [MDMA, 3,4-methylenedioxymethamphetamine]
- Mean duration of subjective and cardiovascular effects [1]: 3.5 h
- Time within which effects completely subside [1]: 5 to 6 h
- Ki [2]: 0.47 µM
- Potency of NET inhibition relative to SERT ([2]; uptake inhibition): three-fold more potently
- DPB, Emax ([3]; diastolic blood pressure): 22.13±2.08 mm Hg
- MAP, Emax ([3]; mean arterial pressure): 21.76±2.73 mm Hg
- Heart rate, Emax [3]: 26.06±2.77 beats/min
- SBP, Emax ([3]; systolic blood pressure): 29.94±3.41 mm Hg
- Body temperature, Emax ([3]; tympanic): 0.54±0.07 °C
- Observed time to half-maximal subjective drug effect ([4]; after drug administration): 44 ± 4 min
- VAS Any drug effect, Emax [4, 16]: 86.69±3.57
- VAS Closeness, Emax [4, 16]: 27.31±3.87
- VAS Drug high, Emax [4, 16]: 87.81±4.85
- VAS Drug liking, Emax [4, 16]: 90.69±4.82
- VAS Good drug effect, Emax [4, 16]: 89.38±4.67
- VAS Open, Emax [4, 16]: 32.16±4.29
- VAS Stimulated, Emax [4, 16]: 76.31±6.84
- VAS Talkative, Emax [4, 16]: 28.81±5.12
- T1/2 ([5]; 100 -125 mg dose): 8 to 9 h
- Increase of MDMA plasma levels ([5]; pretreatment with paroxetine): 30%
- Tmax ([5]; single dose): 2 to 2.4 h
- Ki [6]: 22.4 ± 14.6 µM
- Ex vivo binding (IC50%) SERT [7]: >25%
- Circulating Epinephrine, Emax [8]: 0.50 ± 0.12 nM
- Circulating Norepinephrine, Emax [8]: 0.44 ± 0.12 nM
- Cell integrity after treatment [9]: confirmed
- Ex vivo binding (IC50%) DAT [10]: >25%
- AMRS Activity, Emin [11]: −4.69±1.04
- AMRS Dreaminess, Emax [11]: 2.94±0.66
- AMRS Emotional excitation, Emax [11]: 4.94±0.97
- AMRS Extroversion, Emax [11]: 3.50±0.61
- AMRS Introversion, Emax [11]: 2.62±0.65
- AMRS Well-being, Emax [11]: 7.06±1.01
- List of Complaints (total score), Acute adverse effects ([12]; at 3 h, change from baseline, mean±SEM, 16 subjects): 5.56±1.72
- List of Complaints (total score), Sub-acute adverse effects ([12]; at 24 h, change from baseline, mean±SEM, 16 subjects): 3.88±1.09
- Adverse effects produced ([12]; clinical study): sweating, difficulty concentrating, thirst, and lack of appetite
- Ex vivo binding (IC50%) NET [13]: 23.4±0.7%
- Effect on ASC sum score, OB, AED and VR dimensions [14]: significantly increased
- Ki [15]: 16.7 µM
